Results: US11834680B2, “Single kidney cell-derived organoids” (Rutgers, The State University of New Jersey, priority 2017, dated 2023)

How the values were obtained:
[1] = tested on: cultured nephron progenitor cells; experiment: Effect of activating Wnt signaling on kidney organoid formation, shape and size; type: cell-based, human
Protocol: The organoids generated from multiple patient samples had various phenotypes during the different times of 2D culture. A similar diversity in phenotypes was also detected in the 3D culture stage. Moreover, the organoids formed in 3D culture had both spherical or branching shapes. When […] (1 μM) was added to the media as a pulse for 12 h then media was replaced with fresh media without CHIR, branching tubular shaped organoids increased. In another group of experiments, the effects of addition of 1× B27 supplement were examined.
The Wnt signaling pathway is known to trigger the initiation of nephron progenitor cell differentiation. The effects of activating Wnt signaling in organoid studies was examined. Cultured 2D and 3D cells were treated with a GSK3 inhibitor CHIR99021 (CHIR), which activates the canonical Wnt signaling pathway. […] On the other hand, branching tubular shaped organoids increased.

[2] = tested on: Nephrectomy-derived normal adjacent tissue (NAT) and RCC cells; experiment: Organoid forming efficiency (OFE) of kidney cells in 2D stage I / 3D Matrigel stage II culture; type: cell-based, human
Excerpt: The human kidney contains up to 2 million epithelial nephrons responsible for blood filtration. Regenerating the kidney requires the induction of the more than 20 distinct cell types required for excretion and the regulation of pH, and electrolyte and fluid balance. Herein is described the induction of progenitors for both collecting duct and nephrons via the directed differentiation of patient-derived normal and RCC cells derived from nephrectomy tissues. Under an IRB-approved protocol, nephrectomy specimens from high-risk RCC cases were collected and processed within 15 minutes of surgery. Areas containing tumor as deemed by the pathologist and normal adjacent tissue counterpart were microdissected. A 3D culture system fit for growth of kidney cells was first developed by isolating epithelial cells microdissected from primary RCC specimens. Qualified pathologists confirmed their renal origin from the corresponding H&E. Nephrectomy-derived normal adjacent tissue (NAT) and RCC cells were utilized to determine best conditions for generating organoids. A two-step methodology comprising a first phase of adult kidney stem cell enrichment, conducted in a 2D setting (stage I), followed by a second phase of organoid 3D growth obtained in pure matrigel chambers (stage II), was conducted. […] Stage I media included using either EGM2 or ADMED complete medium (with the addition of EGF, BFGF, IGF-1, VEGF, hydrocortisone, ascorbic acid, insulin, heparin, gentamicin, amphotericin-B, and 2% FBS).
Cells were placed in 3D droplet culture chambers in stage II complete media containing Matrigel, to mimic the basal lamina of the normal renal tissue, and growth factors in conditions that permits cellular self-organization of organoid forming cells. Kidney cells were embedded as single cells in 3D-well plates. Organoid formation was then followed microscopically daily for 2 weeks.

[3] = cultured 2D and 3D cells treated

## Cc1c[nH]c(-c2cnc(NCCNc3ccc(C#N)cn3)nc2-c2ccc(Cl)cc2Cl)n1 [CHIR99021]
[1]; 1 μM added to the media as a pulse for 12 h, then fresh media
  branching tubular shaped organoids: increased
[1]; [3]
  cell death: accompanied by cell death
  differentiation in cultured nephron progenitor cells: induced differentiation
  organoid size: smaller size organoids
[1]; cultured 2D and 3D cells treated, concentration not given
  branching tubular shaped organoids: increased

## IGF-1: Insulin Growth Factor 1, culture medium supplement
[2]; addition to the culture media
  organoid forming efficiency (OFE): improved
[2]; doubling the IGF-1 dose (2×) in culture
  organoid forming efficiency (OFE): did not increase

## Insulin: culture medium supplement
[2]; addition to the culture media
  organoid forming efficiency (OFE): improved

## VEGF
[2]; addition to the culture media
  organoid forming efficiency (OFE): improved

## heparin
[2]; addition to the culture media
  organoid forming efficiency (OFE): improved
